Test results taken from the supplement of paper PMC10307832.

Key:
Experiment in all cases: relative viability (nuclei count vs DMSO), 5 days (fraction); higher = more cells survive
XMD14-99 + Navitoclax = compound: CN1CCN(CC1)C2=CC(=C(C=C2)NC3=NC(=C(S3)C(=O)C4=C(C=CC=C4Cl)Cl)N)OC [XMD14-99] + CC1(C)CCC(c2ccc(Cl)cc2)=C(CN2CCN(c3ccc(C(=O)NS(=O)(=O)c4ccc(N[C@H](CCN5CCOCC5)CSc5ccccc5)c(S(=O)(=O)C(F)(F)F)c4)cc3)CC2)C1 [Navitoclax] (partner 0.5 µM)
How it was run: (§1)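 A single step with final 0.05% Triton X-100, 1% formaldehyde and 1 ug/ml Hoechst fixed the cells and stained nuclei 5 days after treatment. Lung cancer cell lines in 1536-well plates had been treated by pin tool the day after seeding with one drug alone or a fixed anchor-drug dose plus five library-drug doses (not always all listed) in √10 steps, and nuclei were counted on 4× images. Relative viability is the ratio of nuclei in treated wells to nuclei in vehicle wells, taken as the median of duplicate plates.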

XMD14-99 + Phenformin = compound: CN1CCN(CC1)C2=CC(=C(C=C2)NC3=NC(=C(S3)C(=O)C4=C(C=CC=C4Cl)Cl)N)OC [XMD14-99] + N=C(N)NC(=N)NCCc1ccccc1 [Phenformin] (partner 250 µM)
How it was run: as §1

AZD1208 + Luminespib = compound: N[C@@H]1CCCN(c2c(/C=C3\SC(=O)NC3=O)cccc2-c2ccccc2)C1 [AZD1208] + CCNC(=O)c1noc(-c2cc(C(C)C)c(O)cc2O)c1-c1ccc(CN2CCOCC2)cc1 [Luminespib] (partner 0.01 µM)
How it was run: as §1

AZD1208 + Alpelisib = compound: N[C@@H]1CCCN(c2c(/C=C3\SC(=O)NC3=O)cccc2-c2ccccc2)C1 [AZD1208] + Cc1nc(NC(=O)N2CCC[C@H]2C(N)=O)sc1-c1ccnc(C(C)(C)C(F)(F)F)c1 [Alpelisib] (partner 2 µM)
How it was run: as §1

| Cell Line | relative viability (XMD14-99 + Navitoclax; first compound 0.08 µM) | relative viability (XMD14-99 + Navitoclax; first compound 0.8 µM) | relative viability (XMD14-99 + Navitoclax; first compound 2.53 µM) | relative viability (XMD14-99 + Navitoclax; first compound 8 µM) | relative viability (XMD14-99 + Phenformin; first compound 0.08 µM) | relative viability (XMD14-99 + Phenformin; first compound 0.8 µM) | relative viability (XMD14-99 + Phenformin; first compound 2.53 µM) | relative viability (XMD14-99 + Phenformin; first compound 8 µM) | relative viability (AZD1208 + Luminespib; first compound 0.08 µM) | relative viability (AZD1208 + Luminespib; first compound 0.253 µM) | relative viability (AZD1208 + Luminespib; first compound 0.8 µM) | relative viability (AZD1208 + Luminespib; first compound 2.53 µM) | relative viability (AZD1208 + Luminespib; first compound 8 µM) | relative viability (AZD1208 + Alpelisib; first compound 0.08 µM) | relative viability (AZD1208 + Alpelisib; first compound 0.253 µM) | relative viability (AZD1208 + Alpelisib; first compound 0.8 µM) | relative viability (AZD1208 + Alpelisib; first compound 2.53 µM) | relative viability (AZD1208 + Alpelisib; first compound 8 µM) |
| --- | --- | --- | --- | --- | --- | --- | --- | --- | --- | --- | --- | --- | --- | --- | --- | --- | --- | --- |
| NCI-H322M | 1.15 | 1.27 | 1.33 | 1.08 | 0.787 | 0.834 | 0.699 | 0.627 | 0.784 | 0.767 | 0.794 | 0.803 | 0.88 | 0.718 | 0.718 | 0.75 | 0.73 | 0.821 |
| NCI-H441 | 0.575 | 0.556 | 0.724 | 0.569 | 0.889 | 0.811 | 0.738 | 0.662 | 0.393 | 0.331 | 0.26 | 0.342 | 0.265 | 0.55 | 0.787 | 0.617 | 0.466 | 0.446 |
| NCI-H460 | 1.06 | 1.02 | 1.03 | 0.767 | 0.517 | 0.498 | 0.431 | 0.325 | 0.0309 | 0.0217 | 0.0281 | 0.0375 | 0.0205 | 0.502 | 0.408 | 0.458 | 0.46 | 0.409 |
| NCI-H520 | 0.992 | 1.1 | 1.12 | 1.01 | 0.603 | 0.526 | 0.498 | 0.361 | 0.253 | 0.246 | 0.212 | 0.201 | 0.207 | 0.848 | 0.805 | 0.641 | 0.896 | 0.802 |
| NCI-H596 | 1.03 | 0.956 | 0.702 | 0.88 | 0.799 | 0.883 | 0.733 | 0.784 | 0.912 | 1.19 | 0.999 | 1.05 | 0.79 | 0.387 | 0.573 | 0.351 | 0.376 | 0.353 |
| NCI-H647 | 1.08 | 1.19 | 1.16 | 0.974 | 0.526 | 0.494 | 0.6 | 0.489 | 0.266 | 0.16 | 0.294 | 0.154 | 0.146 | 1.03 | 1.28 | 1.06 | 1.06 | 1.01 |
| NCI-H727 | 0.399 | 0.349 | 0.339 | 0.219 | 0.423 | 0.43 | 0.419 | 0.374 | 0.362 | 0.384 | 0.431 | 0.42 | 0.458 | 0.542 | 0.543 | 0.496 | 0.497 | 0.387 |
| NCI-H838 | 1.15 | 1.11 | 1.1 | 0.747 | 0.612 | 0.556 | 0.474 | 0.383 | 0.294 | 0.211 | 0.252 | 0.327 | 0.22 | 0.962 | 1.13 | 0.887 | 0.959 | 0.882 |
| NCI-H1355 | 0.87 | 0.863 | 0.782 | 0.778 | 0.518 | 0.473 | 0.424 | 0.36 | 0.708 | 0.598 | 0.611 | 0.699 | 0.525 | 0.826 | 0.832 | 0.704 | 0.771 | 0.64 |
| NCI-H1395 | 1.06 | 1.11 | 1.09 | 0.902 | 0.471 | 0.458 | 0.404 | 0.438 | 0.705 | 0.784 | 0.608 | 0.539 | 0.553 | 0.925 | 1.07 | 1.1 | 1.24 | 0.851 |
| NCI-H1437 | 1.06 | 1 | 0.913 | 0.629 | 0.321 | 0.316 | 0.244 | 0.237 | 1.13 | 1.17 | 1.2 | 1.24 | 1.22 | 0.927 | 0.981 | 0.796 | 0.827 | 0.504 |
| NCI-H1651 | 0.982 | 1.04 | 0.933 | 0.943 | 0.321 | 0.319 | 0.301 | 0.272 | 0.902 | 0.977 | 0.848 | 0.795 | 0.568 | 0.848 | 0.921 | 0.785 | 0.732 | 0.677 |
| NCI-H1666 | 0.994 | 0.771 | 0.797 | 0.566 | 0.567 | 0.553 | 0.494 | 0.533 | 0.977 | 1.07 | 0.911 | 1 | 1.01 | 0.815 | 0.821 | 0.577 | 0.765 | 0.894 |
| NCI-H1734 | 0.805 | 0.816 | 0.765 | 0.654 | 0.348 | 0.376 | 0.368 | 0.381 | 0.18 | 0.197 | 0.187 | 0.159 | 0.168 | 0.614 | 0.619 | 0.557 | 0.556 | 0.434 |
| NCI-H1755 | 1.02 | 0.972 | 0.926 | 0.809 | 0.587 | 0.57 | 0.578 | 0.523 | 0.357 | 0.282 | 0.494 | 0.565 | 0.269 | 0.933 | 1.02 | 0.858 | 0.859 | 0.741 |
| NCI-H1792 | 0.747 | 0.638 | 0.561 | 0.41 | 0.286 | 0.379 | 0.234 | 0.167 | 0.407 | 0.437 | 0.358 | 0.394 | 0.284 | 0.629 | 0.742 | 0.579 | 0.608 | 0.535 |
| NCI-H1793 | 0.424 | 0.411 | 0.461 | 0.386 | 0.367 | 0.337 | 0.249 | 0.288 | 0.181 | 0.17 | 0.14 | 0.176 | 0.152 | 0.639 | 0.778 | 0.664 | 0.507 | 0.498 |
